Data: PubChem BioAssay AID1963440 (Molecular Pharmacology Branch, DTP, NCI, 2024)
“And” between values parts separate entries of the source, which are not always exact repeats. Equal values may be shown once.

Test system: NCI-H1417 complex spheroids, growth % test/control
Assay: Anticancer human tumor NCI-H1417 cell line growth inhibition [Asc];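 note: spheroids exposed to compounds for 7 days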;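 for viability, T/C: 100% = DMSO vehicle control wells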
Details: for viability, T/C: stronger effect = lower value
Method: Multicellular complex tumor spheroid response to apoptosis pathway targeting inhibitors Alrizomadlin, Pelcitoclax, and Dasminapant in combination with a variety of drugs and investigational agents in selected tumor cell lines
The MDM2 inhibitor alrizomadlin, the Bcl-2/Bcl-xL inhibitor pelcitoclax, and the IAPs inhibitor dasminapant were evaluated both individually and in combination with standard of care and investigational anticancer small molecules within a complex spheroid model of solid tumors. . Complex spheroids include a stromal component modeled by human endothelial cells (HUVEC) and fibroblasts modeled by human mesenchymal stem cells (MSCs). The concentration ranges selected for each drug and investigational agent were based upon clinically achievable concentrations if the clinical Cmax of the agent was known.
Compounds. The drugs and investigational agents: alrizomadlin (APG-115; NSC831270), pelcitoclax (APG-1252; NSC835773), dasminapant (APG-1387;NSC834197), TAK-243 (NSC785004), copanlisib (NSC809693), olaparib (NSC753686), talazoparib (NSC767125), cobimetinib (NSC 768068), eltanexor (KPT-8602, NSC 794443), abemaciclib (NSC 768073), sotorasib (NSC818433), adagrasib (NSC 831453), MRTX-1133 (NSC 836407), Iadademestat (ORY1001, NSC 806812), and RMC-4630 (NSC839698), were obtained from the NCI Developmental Therapeutics Program Chemical Repository. The FDA-approved anticancer drug set is available from the Developmental Therapeutics Program at https://dtp.cancer.gov/organization/dscb/obtaining/available plates.htm. […] The stock solutions were prepared in dimethyl sulfoxide (DMSO, Sigma-Aldrich, St. Louis, MO, cat. D2650) at 800-fold the tested concentration and stored at -70 degrees C prior to their use. All drugs and investigational agents were tested over a range starting from a high concentration at or near the clinical Cmax and decreasing in half-log increments. If the clinical Cmax for an agent had not been determined, the highest concentration tested was 10 microM.
The patient-derived cancer (PDC) cell lines include five colon adenocarcinomas: 186277-243-T-J2-PDC, 616215-338-R-J1-PDC, 439559-082-T-J2-PDC, 463943-066-T-J2-PDC, and 519858-162-T-J1-PDC; three pancreatic carcinomas: 323965-272-R-J2-PDC, 521955-158-R6-J3-PDC, and 521955-158-R2-J5-PDC; two uterine sarcomas: 327498-152-R-J2-PDC and 993429-296-R-J1-PDC; two rhabdomyosarcomas: 755483-174-R-J1-PDC and 772245-204-R-J1-PDC; two soft tissue sarcomas: 126254-015-R-J1-PDC and 494315-158-R-J1-PDC; two malignant fibrous histiocytomas: 317291-083-R-J1-PDC and 596521-263-R-J1-PDC; two breast carcinomas: 171881-019-R-J1-PDC and 885512-296-R-J2-PDC; and one ovarian carcinoma: 6556581-035-R-J-PDC were obtained from the NCI PDMR, (https://pdmr.cancer.gov). The established cell lines HSSY-2 synovial sarcoma (RRID:CVCL 8719), SYO-1 synovial sarcoma (RRID:CVCL_7146), MPNST malignant peripheral neural sheath tumor were obtained from the Sloan Kettering Institute. The following established cell lines were purchased from the American Type Culture Collection (ATCC, Manassas, VA), Sor the received from the NCI repository:, PANC-1 pancreatic carcinoma (CRL-1469, RRID:CVCL_0480), OVCAR-5 ovarian carcinoma (RRID:CVCL_1628), OVCAR-8 ovarian carcinoma (RRID:CVCL_1629), , MCF-7 breast carcinoma (CRL-12584, RRID:CVCL_0031), MDA-MB-231 breast carcinoma (CRL-12532, RRID:CVCL_0062), NCI-H1876 small cell lung carcinoma (CRL-5902, RRID:CVCL_1503), NCI-H510A small cell lung carcinoma (HTB-184, RRID:CVCL_1565), NCI-H1417 (CRL-5869, RRID:CVCL_1469), and NCI-H196 small cell lung carcinoma (CRL-5823, RRID:CVCL_1509). Dr. Peter Houghton (Greehey Children's Cancer Research Institute, University of Texas Health Science Center, San Antonio, TX) provided Rh-18 rhabdomyosarcoma (RRID:CVCL_1659). Pooled donor human umbilical vein endothelial cells (HUVEC, Lonza, cat. CC-2519) and human mesenchymal stem cells (hMSC, Lonza, cat. PT-2501) were purchased from Lonza (Walkersville, MD).
Cell Culture. […]

[1] = compound alone, run of 10/11/2022

Row | SMILES | IC50 (curve of compound) | viability, T/C (compound 0.0316 µM) | viability, T/C (compound 0.1 µM) | viability, T/C (compound 0.316 µM) | viability, T/C (compound 1 µM) | viability, T/C (compound 3.16 µM) | viability, T/C (compound 10 µM) | viability, T/C (compound 0.00316 µM) | viability, T/C (compound 0.01 µM) | also measured
1 | CCN1C(C(=O)NC23CCC(C(=O)O)(CC2)CC3)C(c2cccc(Cl)c2F)C2(C(=O)Nc3cc(Cl)ccc32)C12CCCCC2 (stereo not drawn) | > 3 µM | – | – | – | – | – | – | – | – | viability, T/C (compound 0.00949 µM): 102% and 109%; viability, T/C (compound 0.03 µM): 102% [middle of 15 runs]; viability, T/C (compound 0.0949 µM): 101% [middle of 15 runs]; viability, T/C (compound 0.3 µM): 97.9% [middle of 15 runs]; viability, T/C (compound 3 µM): 93.4% [middle of 15 runs]; IC50 [1]: > 3 µM
2 | CCN1CCN(Cc2ccc(Nc3ncc(F)c(-c4cc(F)c5nc(C)n(C(C)C)c5c4)n3)nc2)CC1 | > 1 µM | 99.9% and 102% and 101% | 96.5% and 111% and 105% | 92.8% and 84.3% and 97.3% | 91.7% and 81% and 79.7% | – | – | 99.3% and 89.7% and 102% | 95.8% and 105% and 93.8% | –
3 | CNC(C)C(=O)NC1CN(S(=O)(=O)c2cccc(S(=O)(=O)N3CCC4CCC(C(=O)NC(c5ccccc5)c5ccccc5)N4C(=O)C(NC(=O)C(C)NC)C3)c2)CCC2CCC(C(=O)NC(c3ccccc3)c3ccccc3)N2C1=O (stereo not drawn) | > 1 µM | 97.8% [middle of 13 runs] | – | 96.8% [middle of 14 runs] | 97.5% [middle of 14 runs] | – | – | 95% and 113% and 107% | 105% [middle of 14 runs] | IC50 (compound alone, run of 10/24/2022): > 1 µM; IC50 (compound alone, run of 11/15/2022): > 1 µM
4 | COc1c(OCCCN2CCOCC2)ccc2c3n(c(=NC(=O)c4cnc(N)nc4)nc12)CCN3 | > 1 µM | 82.9% and 83.8% and 91.8% | 76.9% and 73.8% and 90.3% | 69% and 70.4% and 77.1% | 54.8% and 47.9% and 64% | – | – | 94.5% and 101% and 96.7% | 100% and 96.2% and 99% | –
5 | Cc1c(S(C)(=O)=O)c(-c2cc(F)cc(N3CCN(c4ccc(NS(=O)(=O)c5ccc(NC(CCN6CCC(C(=O)OCCCP(=O)(O)O)CC6)CSc6ccccc6)c(S(=O)(=O)C(F)(F)F)c5)cc4)CC3)c2)c(-c2ccc(Cl)cc2)n1C(C)C (stereo not drawn) | – | – | 81.6% [middle of 14 runs] | 50.6% [middle of 14 runs] | 13.7% [middle of 14 runs] | 3.19% [middle of 14 runs] | 2.54% [middle of 12 runs] | – | – | IC50 [1]: 322 nM [middle of 14 runs]
6 | Cc1nc(N2CCC3(CC2)COC(C)C3N)c(CO)nc1Sc1ccnc(N)c1Cl (stereo not drawn) | > 3 µM | – | – | – | – | – | – | – | – | viability, T/C (compound 0.00949 µM): 83.4% and 92.6% and 92.5%; viability, T/C (compound 0.03 µM): 82.8% and 102% and 101%; viability, T/C (compound 0.0949 µM): 104% and 101% and 77.7%; viability, T/C (compound 0.3 µM): 112% and 84.2% and 93%; viability, T/C (compound 0.949 µM): 101% and 84% and 83.2%; viability, T/C (compound 3 µM): 76.5% and 70.5% and 76.4%
7 | Cn1ncnc1[C@H]1c2n[nH]c(=O)c3cc(F)cc(c23)N[C@@H]1c1ccc(F)cc1 | 0.0582 µM and > 0.1 µM and 0.0321 µM | 56.4% and 77% and 57% | 44% and 79.8% and 30.6% | – | – | – | – | 81.6% and 87.3% and 69.7% | 70.8% and 75.9% and 67.2% | viability, T/C (compound 0.000316 µM): 101% and 113% and 97.4%; viability, T/C (compound 0.001 µM): 90.8% and 116% and 85%
8 | NC(=O)C(=Cn1cnc(-c2cc(C(F)(F)F)cc(C(F)(F)F)c2)n1)c1cncnc1 | 0.178 µM and 0.134 µM and 0.259 µM | – | – | – | – | – | – | – | – | viability, T/C (compound 0.000949 µM): 98.9% and 102% and 99.9%; viability, T/C (compound 0.003 µM): 99.9% and 106% and 107%; viability, T/C (compound 0.00949 µM): 89.7% and 96.8% and 104%; viability, T/C (compound 0.03 µM): 93% and 97.1% and 94.3%; viability, T/C (compound 0.0949 µM): 79.8% and 61.8% and 85.1%; viability, T/C (compound 0.3 µM): 25.3% and 22.2% and 44.6%
9 | NC1CCC(NC2CC2c2ccccc2)CC1 (stereo not drawn) | > 0.1 µM | 89% and 84.6% and 88.3% | 82.3% and 78.4% and 97.6% | – | – | – | – | 89.5% and 86.4% and 89.2% | 83.2% and 78.4% and 87.9% | viability, T/C (compound 0.000316 µM): 94.2% and 90.8% and 94.6%; viability, T/C (compound 0.001 µM): 91.8% and 89.6% and 93.2%
10 | O=C(c1ccc(F)c(F)c1Nc1ccc(I)cc1F)N1CC(O)([C@@H]2CCCCN2)C1 | > 1 µM | 84.4% and 103% and 97.9% | 89% and 98.1% and 116% | 88.8% and 94.5% and 97.2% | 65.3% and 83.7% and 98.2% | – | – | 89.8% and 105% and 96.8% | 99.2% and 107% and 97.3% | –

Further lines, with some results ahead:

Row | IC50 (curve of compound) | SMILES | viability, T/C (compound 0.0316 µM) | viability, T/C (compound 0.1 µM) | viability, T/C (compound 0.316 µM) | viability, T/C (compound 1 µM) | viability, T/C (compound 3.16 µM) | viability, T/C (compound 10 µM) | viability, T/C (compound 0.00316 µM) | viability, T/C (compound 0.01 µM) | also measured
11 | > 10 µM | C#Cc1c(F)ccc2cc(O)cc(-c3ncc4c(N5CC6CCC(C5)N6)nc(OCC56CCCN5CC(F)C6)nc4c3F)c12 (stereo not drawn) | 93% and 102% and 110% | 89.5% and 97.4% and 102% | 94.3% (2×) and 101% | 106% and 98.8% and 97.6% | 96.5% and 100% and 101% | 72.5% and 96.5% and 83% | – | – | –
12 | 3.83 µM and 3.66 µM and 4.61 µM | C=C(F)C(=O)N1CCN(c2nc(OCC3CCCN3C)nc3c2CCN(c2cccc4cccc(Cl)c24)C3)CC1CC#N (stereo not drawn) | 98.9% and 103% and 94.2% | 106% and 101% and 88% | 96.4% and 99.8% and 99.7% | 90.7% and 84.8% and 90.3% | 59.8% and 57.5% and 74.3% | 0.26% and 0.27% and 0.31% | – | – | –
13 | > 10 µM | C=CC(=O)N1CCN(c2nc(=O)n(-c3c(C)ccnc3C(C)C)c3nc(-c4c(O)cccc4F)c(F)cc23)C(C)C1 (stereo not drawn) | 111% and 108% and 110% | 105% and 90.2% and 96.7% | 112% and 98.4% and 106% | 111% and 105% and 101% | 99.4% and 104% and 103% | 99.5% and 102% and 94.5% | – | – | –
14 | 4.83 µM and 4.2 µM and 6.31 µM | O=C(c1cc(Cc2n[nH]c(=O)c3ccccc23)ccc1F)N1CCN(C(=O)C2CC2)CC1 | 96.7% and 102% and 86.3% | 106% and 90.7% and 91.3% | 89.8% and 84.6% and 86.3% | 80.9% and 84.3% and 99.2% | 56.5% and 56.2% and 71% | 38.3% and 24.6% and 36% | – | – | –
